From PubChem BioAssay AID248 (DTP/NCI, 2004)
Where “and” joins values, the source holds several entries; their conditions need not be identical. Equal entries are not always repeated. Inconclusive results and toxic doses are left out. Cut-off read from the data, not from the text of the source: active = T/C of 150% or more; inactive = T/C below 125%.

Tested on: L1210 leukemia ip in BDF1 mice, survival T/C
Assay: NCI In Vivo Anticancer Drug Screen. Data for tumor model L1210 Leukemia (intraperitoneal) in B6D2F1 (BDF1) mice
Settings: endpoint: mean survival time, higher = longer survival
Method in brief: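 Value reflects the ratio of survival in compound-treated mice to survival in vehicle-treated controls, with both groups carrying the same transplanted tumor.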

[1] = dose: 100.0 mg/kg/injection, schedule: Q01DX009 (ip), vehicle: Klucel (hydroxypropylcellulose) (HPC)
[2] = dose: 100.0 mg/kg/injection, schedule: Q04DX003 (ip), vehicle: Klucel (hydroxypropylcellulose) (HPC)
[3] = dose: 200.0 mg/kg/injection, schedule: Q01DX009 (ip), vehicle: Klucel (hydroxypropylcellulose) (HPC)
[4] = dose: 200.0 mg/kg/injection, schedule: Q04DX003 (ip), vehicle: Klucel (hydroxypropylcellulose) (HPC)
[5] = dose: 400.0 mg/kg/injection, schedule: Q04DX003 (ip), vehicle: Klucel (hydroxypropylcellulose) (HPC)
[6] = dose: 50.0 mg/kg/injection, schedule: Q01DX009 (ip), vehicle: saline with Tween-80
[7] = dose: 100.0 mg/kg/injection, schedule: Q01DX009 (ip), vehicle: saline with Tween-80
[8] = dose: 200.0 mg/kg/injection, schedule: Q01DX009 (ip), vehicle: saline with Tween-80
[9] = dose: 100.0 mg/kg/injection, schedule: Q04DX002 (ip), vehicle: saline with Tween-80
[10] = dose: 200.0 mg/kg/injection, schedule: Q04DX002 (ip), vehicle: saline with Tween-80
[11] = dose: 400.0 mg/kg/injection, schedule: Q04DX002 (ip), vehicle: saline with Tween-80
[12] = dose: 200.0 mg/kg/injection, schedule: Q01DX001 (ip), vehicle: saline
[13] = dose: 400.0 mg/kg/injection, schedule: Q01DX001 (ip), vehicle: saline

Measured: T/C

COc1cc(NS(C)(=O)=O)ccc1NS(C)(=O)=O
inactive: [1] 112 % of control | [2] 108 % of control | [3] 108 % of control | [4] 94 % of control | dose: 400.0 mg/kg/injection, schedule: Q01DX009 (ip), vehicle: Klucel (hydroxypropylcellulose) (HPC) 103 % of control | [5] 100 % of control

O=C(c1ccccc1)C(Cl)C(O)(C(F)(F)F)C(F)(F)F (stereo not given)
inactive: [6] 96 % of control | [7] 92 % of control | [8] 108 % of control

CCOC(=O)c1ccc(NCC2=Nc3c(N)nc(N)nc3NC2)cc1
inactive: dose: 3.0 mg/kg/injection, schedule: Q01DX009 (ip), vehicle: Klucel (hydroxypropylcellulose) (HPC) 92 % of control | dose: 6.0 mg/kg/injection, schedule: Q01DX009 (ip), vehicle: Klucel (hydroxypropylcellulose) (HPC) 97 % of control | dose: 12.0 mg/kg/injection, schedule: Q01DX009 (ip), vehicle: Klucel (hydroxypropylcellulose) (HPC) 101 % of control and 108 % of control | dose: 25.0 mg/kg/injection, schedule: Q01DX009 (ip), vehicle: Klucel (hydroxypropylcellulose) (HPC) 97 % of control | dose: 50.0 mg/kg/injection, schedule: Q01DX009 (ip), vehicle: Klucel (hydroxypropylcellulose) (HPC) 90 % of control | [1] 89 % of control

O=C(NC(c1ccccc1)C(NC(=O)c1ccccc1)c1ccccc1)c1ccccc1 (stereo not given)
inactive: dose: 100.0 mg/kg/injection, schedule: Q01DX001 (ip), vehicle: Klucel (hydroxypropylcellulose) (HPC) 99 % of control | dose: 200.0 mg/kg/injection, schedule: Q01DX001 (ip), vehicle: Klucel (hydroxypropylcellulose) (HPC) 99 % of control | dose: 400.0 mg/kg/injection, schedule: Q01DX001 (ip), vehicle: Klucel (hydroxypropylcellulose) (HPC) 97 % of control

C1=CC2(CCC13CS3)CS2 (stereo not given)
inactive: [9] 91 % of control | [10] 88 % of control | [11] 91 % of control

Nc1nc(SCc2ccncc2)c2[nH]cnc2n1
inactive: dose: 178.0 mg/kg/injection, schedule: Q01DX001 (ip), vehicle: saline 118 % of control

O=C(Nc1cccc(C(F)(F)F)c1)C(Br)C(Br)c1ccccc1 (stereo not given)
inactive: [1] 103 % of control | [3] 100 % of control

CC(C)CC(CC(C)C)NCC(C)OC(=O)c1ccc([N+](=O)[O-])cc1 (stereo not given)
inactive: dose: 100.0 mg/kg/injection, schedule: Q01DX009 (ip), vehicle: water 93 % of control | dose: 100.0 mg/kg/injection, schedule: Q04DX003 (ip), vehicle: water 98 % of control | dose: 200.0 mg/kg/injection, schedule: Q01DX009 (ip), vehicle: water 88 % of control | dose: 200.0 mg/kg/injection, schedule: Q04DX003 (ip), vehicle: water 98 % of control | dose: 400.0 mg/kg/injection, schedule: Q01DX009 (ip), vehicle: water 86 % of control | dose: 400.0 mg/kg/injection, schedule: Q04DX003 (ip), vehicle: water 96 % of control

NC(=O)OCC1OC(n2ccc(=O)[nH]c2=O)C(O)C1O (stereo not given)
inactive: dose: 100.0 mg/kg/injection, schedule: Q01DX005 (ip), vehicle: saline 105 % of control

CCCC(C(CC)CNC(=O)Nc1cccc2ccccc12)N(C)C(=O)Nc1cccc2ccccc12 (stereo not given)
inactive: dose: 50.0 mg/kg/injection, schedule: Q01DX001 (ip), vehicle: carboxymethylcellulose (CMC) 109 % of control | dose: 100.0 mg/kg/injection, schedule: Q01DX001 (ip), vehicle: carboxymethylcellulose (CMC) 102 % of control | dose: 200.0 mg/kg/injection, schedule: Q01DX001 (ip), vehicle: carboxymethylcellulose (CMC) 103 % of control | dose: 400.0 mg/kg/injection, schedule: Q01DX001 (ip), vehicle: carboxymethylcellulose (CMC) 96 % of control

O=C(Nc1cccc2ccccc12)C(Cl)Cl
inactive: dose: 100.0 mg/kg/injection, schedule: Q04DX002 (ip), vehicle: Klucel (hydroxypropylcellulose) (HPC) 100 % of control | dose: 200.0 mg/kg/injection, schedule: Q04DX002 (ip), vehicle: Klucel (hydroxypropylcellulose) (HPC) 93 % of control | dose: 400.0 mg/kg/injection, schedule: Q04DX002 (ip), vehicle: Klucel (hydroxypropylcellulose) (HPC) 93 % of control

Cn1c(C(O)(Cc2ccccn2)Cc2ccccn2)cc2ccccc21
inactive: [9] 90 % of control | [10] 90 % of control | [11] 97 % of control

O=c1c(O)c(O)c1=O
inactive: dose: 75.0 mg/kg/injection, schedule: Q01DX001 (ip), vehicle: carboxymethylcellulose (CMC) 89 % of control | dose: 150.0 mg/kg/injection, schedule: Q01DX001 (ip), vehicle: carboxymethylcellulose (CMC) 98 % of control

OC(Cc1ccccc1)(c1ccccc1)C(O)(Cc1ccccc1)c1ccccc1 (stereo not given)
inactive: dose: 50.0 mg/kg/injection, schedule: Q01DX001 (ip), vehicle: saline 94 % of control | dose: 100.0 mg/kg/injection, schedule: Q01DX001 (ip), vehicle: saline 94 % of control | [12] 94 % of control | [13] 94 % of control

O=C1CC(=P(c2ccccc2)(c2ccccc2)c2ccccc2)C(=O)O1
inactive: [6] 103 % of control | [7] 103 % of control | [2] 93 % of control | [8] 100 % of control | [4] 95 % of control | [5] 93 % of control

O=C1CC2OCC=C3C[N+]4(SS(=O)(=O)[O-])CCC56c7ccccc7N1C5C2C3CC64 (stereo not given)
inactive: dose: 0.15 mg/kg/injection, schedule: Q01DX009 (ip), vehicle: saline 93 % of control | dose: 0.31 mg/kg/injection, schedule: Q01DX009 (ip), vehicle: saline 95 % of control | dose: 0.31 mg/kg/injection, schedule: Q04DX003 (ip), vehicle: acetone 108 % of control | dose: 0.62 mg/kg/injection, schedule: Q01DX009 (ip), vehicle: saline 93 % of control | dose: 0.62 mg/kg/injection, schedule: Q04DX003 (ip), vehicle: acetone 108 % of control | dose: 0.92 mg/kg/injection, schedule: Q01DX009 (ip), vehicle: saline 92 % of control | dose: 1.25 mg/kg/injection, schedule: Q01DX001 (ip), vehicle: saline 98 % of control | dose: 1.25 mg/kg/injection, schedule: Q04DX003 (ip), vehicle: acetone 88 % of control | dose: 1.4 mg/kg/injection, schedule: Q01DX009 (ip), vehicle: saline 92 % of control

C=CCOc1ccccc1OC
inactive: [6] 96 % of control | [7] 100 % of control | dose: 100.0 mg/kg/injection, schedule: Q04DX003 (ip), vehicle: saline with Tween-80 103 % of control | [8] 95 % of control | dose: 200.0 mg/kg/injection, schedule: Q04DX003 (ip), vehicle: saline with Tween-80 112 % of control

C/C(=N\N=C(/C)c1cccc(N)c1)c1cccc(N)c1
inactive: [12] 87 % of control | [13] 87 % of control

COc1ccc(Cl)cc1NC(=O)/C=C/c1ccccc1
inactive: dose: 100.0 mg/kg/injection, schedule: Q01DX001 (ip), vehicle: saline with Tween-80 95 % of control | [7] 89 % of control | [9] 98 % of control and 90 % of control | dose: 200.0 mg/kg/injection, schedule: Q01DX001 (ip), vehicle: saline with Tween-80 92 % of control | [8] 95 % of control and 89 % of control | [10] 96 % of control and 91 % of control | dose: 400.0 mg/kg/injection, schedule: Q01DX009 (ip), vehicle: saline with Tween-80 92 % of control | [11] 94 % of control and 86 % of control

O=[N+]([O-])c1cc2c(c([N+](=O)[O-])c1)OCOC2
inactive: dose: 100.0 mg/kg/injection, schedule: Q04DX003 (ip), vehicle: saline 100 % of control | dose: 200.0 mg/kg/injection, schedule: Q04DX003 (ip), vehicle: saline 97 % of control | dose: 400.0 mg/kg/injection, schedule: Q04DX003 (ip), vehicle: saline 107 % of control
